The values that follow come from ChEMBL document CHEMBL1128179, “Structure-activity study of tripeptide thrombin inhibitors using alpha-alkyl amino acids and other conformationally constrained amino acid substitutions” (J Med Chem, 1995).

The target in one assay is Coagulation factor X (Bos taurus, UniProt P00743). Description: In vitro Enzyme Inhibitory activity measured against Coagulation factor X.
The next assay deals with Plasminogen (Homo sapiens, UniProt P00747). Kind of assay: In vitro Enzyme Inhibitory activity measured against Plasmin.
Assay [1] addresses Tissue-type plasminogen activator (Homo sapiens, UniProt P00750). Kind of assay: In vitro Enzyme Inhibitory activity against t-PA(Tissue plasminogen activator).
Another assay concerns the target Prothrombin (Bos taurus, UniProt P00735). Description: In vitro Enzyme Inhibitory activity measured against Thrombin.
A further assay concerns the target T1, Serine protease 1 (Bos taurus, UniProt P00760).
T1 sequence (P00760 whole entry): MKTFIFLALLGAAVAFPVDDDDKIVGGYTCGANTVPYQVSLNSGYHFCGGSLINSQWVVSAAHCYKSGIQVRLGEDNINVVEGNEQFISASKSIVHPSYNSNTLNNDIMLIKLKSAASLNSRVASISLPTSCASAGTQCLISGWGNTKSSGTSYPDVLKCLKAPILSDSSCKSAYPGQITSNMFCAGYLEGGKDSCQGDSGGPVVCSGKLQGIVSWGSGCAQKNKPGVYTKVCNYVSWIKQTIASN
Description: In vitro Enzyme Inhibitory activity measured against Trypsin.

Assay [2] can be described thus: Ratio of IC50 towards Plasmin to thrombin.
Assay [3] can be described thus: Ratio of IC50 towards Tissue Plasminogen activator to thrombin.

Square brackets hold non-standard residues; d marks the D form. Peptide text beside a SMILES is read from it. * marks the point of attachment. Tic = O=C(O)[C@@H]1Cc2ccccc2CN1; dPhg = N[C@@H](C(=O)O)c1ccccc1; Boc = CC(C)(C)OC(=O)*

Chain of Tissue-type plasminogen activator (P00750 whole entry): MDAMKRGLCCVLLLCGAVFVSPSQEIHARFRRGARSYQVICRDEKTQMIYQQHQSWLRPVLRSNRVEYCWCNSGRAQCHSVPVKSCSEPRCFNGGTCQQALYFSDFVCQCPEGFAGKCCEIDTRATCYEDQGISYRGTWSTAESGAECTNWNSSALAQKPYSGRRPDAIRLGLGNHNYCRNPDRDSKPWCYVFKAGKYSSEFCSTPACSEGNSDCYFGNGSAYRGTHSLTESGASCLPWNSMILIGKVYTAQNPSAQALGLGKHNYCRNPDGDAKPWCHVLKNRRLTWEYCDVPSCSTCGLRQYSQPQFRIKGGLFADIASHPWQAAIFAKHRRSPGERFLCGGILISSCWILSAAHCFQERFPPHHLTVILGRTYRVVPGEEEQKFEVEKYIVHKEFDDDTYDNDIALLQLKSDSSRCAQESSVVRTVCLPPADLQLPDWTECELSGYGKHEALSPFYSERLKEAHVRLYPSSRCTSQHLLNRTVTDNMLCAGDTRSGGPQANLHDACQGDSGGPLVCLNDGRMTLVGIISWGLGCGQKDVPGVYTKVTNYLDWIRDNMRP
Chain of Plasminogen (P00747 97-580 limits assumed): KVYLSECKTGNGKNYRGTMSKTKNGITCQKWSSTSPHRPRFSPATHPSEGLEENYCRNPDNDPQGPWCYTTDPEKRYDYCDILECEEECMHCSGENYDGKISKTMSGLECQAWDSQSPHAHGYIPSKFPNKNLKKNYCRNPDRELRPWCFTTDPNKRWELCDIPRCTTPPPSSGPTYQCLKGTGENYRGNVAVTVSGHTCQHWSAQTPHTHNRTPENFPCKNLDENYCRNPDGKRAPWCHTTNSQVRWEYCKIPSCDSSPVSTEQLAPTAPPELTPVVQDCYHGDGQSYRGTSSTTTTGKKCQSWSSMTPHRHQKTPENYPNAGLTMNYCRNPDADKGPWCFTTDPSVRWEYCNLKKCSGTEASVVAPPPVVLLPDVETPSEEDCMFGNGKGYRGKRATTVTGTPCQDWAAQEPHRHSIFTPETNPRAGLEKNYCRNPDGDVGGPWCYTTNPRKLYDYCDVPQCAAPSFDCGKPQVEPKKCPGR
Chain of Plasminogen (P00747 581-810 limits assumed): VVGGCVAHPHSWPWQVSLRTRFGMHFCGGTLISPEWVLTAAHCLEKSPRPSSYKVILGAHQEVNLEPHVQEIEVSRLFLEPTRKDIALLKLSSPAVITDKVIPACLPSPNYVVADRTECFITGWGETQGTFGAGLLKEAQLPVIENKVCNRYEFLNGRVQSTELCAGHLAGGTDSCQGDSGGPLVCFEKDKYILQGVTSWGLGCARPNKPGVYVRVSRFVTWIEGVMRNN
Chain of Coagulation factor X (P00743 41-180 limits assumed): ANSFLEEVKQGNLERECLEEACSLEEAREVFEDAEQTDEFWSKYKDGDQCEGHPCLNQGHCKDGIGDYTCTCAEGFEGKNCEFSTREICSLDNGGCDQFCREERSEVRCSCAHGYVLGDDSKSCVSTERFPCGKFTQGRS
Chain of Coagulation factor X (P00743 234-492 limits assumed): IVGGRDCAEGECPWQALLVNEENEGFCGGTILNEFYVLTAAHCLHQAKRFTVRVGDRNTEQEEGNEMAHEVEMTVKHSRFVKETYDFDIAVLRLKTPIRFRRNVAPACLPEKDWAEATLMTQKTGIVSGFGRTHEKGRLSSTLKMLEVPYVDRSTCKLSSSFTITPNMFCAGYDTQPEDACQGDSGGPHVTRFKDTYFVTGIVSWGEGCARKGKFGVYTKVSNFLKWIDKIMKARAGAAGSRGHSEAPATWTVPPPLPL

With `CC(C)(C)OC(=O)N[C@@H](Cc1ccccc1)C(=O)N1CCCC[C@H]1C(=O)N[C@H](C=O)CCCNC(=N)N`, the half-maximal inhibitory concentration (IC50) against Coagulation factor X turned out to be 32 µM; against Plasminogen, 8.1 µM; in assay [1], 48 µM; against Prothrombin, 1.7 µM; against Serine protease 1 it was 0.72 µM.

Turning to `C[C@](NC(=O)C(F)(F)F)(C(=O)N1CC[C@H]1C(=O)N[C@H](C=O)CCCN=C(N)N)c1ccccc1`, the IC50 stood at 98 µM against Coagulation factor X; 6.1 µM on Plasminogen; 130 µM in assay [1]; 0.012 µM on Prothrombin; 0.0096 µM against Serine protease 1. Also, the Selectivity in assay [2] was 510; in assay [3], 11000.

`CC(C)(C)OC(=O)NC(Cc1ccccc1)C(=O)N1CSCC1C(=O)N[C@H](C=O)CCCN=C(N)N` (stereo in doubt) [listing 1 of 3 here]: the IC50 on Coagulation factor X worked out at 0.86 µM; at Plasminogen it was 0.34 µM; in assay [1], 23 µM; at Serine protease 1 it was 0.0088 µM.

Consider `N=C(N)NCCC[C@@H](C=O)NC(=O)[C@@H]1CCCN1C(=O)[C@@H]1C[C@@H]2CCCC[C@@H]2CN1`, for which the concentration for half-maximal inhibition (IC50) was found to be 3.3 µM against Coagulation factor X; 0.23 µM on Plasminogen; 30 µM in assay [1]; 0.046 µM on Prothrombin; 0.0091 µM at Serine protease 1. Further, the Selectivity turned out to be 5 in assay [2] and 650 in assay [3].

For the compound `C[C@](NC(=O)C(F)(F)F)(C(=O)N1CCC[C@H]1C(=O)N[C@H](C=O)CCCN=C(N)N)c1ccccc1`, the half-inhibitory concentration (IC50) at Coagulation factor X was 190 µM; at Plasminogen, 45 µM; in assay [1], more than 30000 µM; against Prothrombin, 0.064 µM; against Serine protease 1 it was 0.18 µM. Moreover, the Selectivity in assay [2] is 700; in assay [3], more than 50000.

Regarding `CC(C)(C)OC(=O)NC(Cc1ccccc1)C(=O)N1C(C(=O)N[C@H](C=O)CCCN=C(N)N)CCC1(C)C` (stereo in doubt) [listing 1 of 3 here], the Selectivity in assay [2] is 38; in assay [3], more than 50000.

Turning to `CC(C)(C)OC(=O)N[C@@](C)(C(=O)N1CC[C@H]1C(=O)N[C@H](C=O)CCCN=C(N)N)c1ccccc1`, the IC50 against Coagulation factor X was determined as 0.89 µM; at Plasminogen, 3.9 µM; in assay [1], 120 µM; at Prothrombin it was 0.022 µM; at Serine protease 1, 0.015 µM. The Selectivity in assay [2] was 180; in assay [3], 5500.

Consider `CC(C)(C)OC(=O)N[C@@H](Cc1ccccc1)C(=O)N1CCCC[C@H]1C(=O)N[C@H](C=O)CCCN=C(N)N`, for which the Selectivity was 5 in assay [2] and 30 in assay [3].

As to `CN[C@H](Cc1ccccc1)C(=O)N1CCC[C@H]1C(=O)N[C@H](C=O)CCCNC(=N)N`, the figures for the Selectivity in assay [2] and in assay [3] were 80 and 2400, respectively.

Regarding `CC(C)(C)OC(=O)NC(Cc1ccccc1)C(=O)N1C(C(=O)N[C@H](C=O)CCCN=C(N)N)CCC1(C)C` (stereo in doubt) [listing 2 of 3 here], the half-inhibitory concentration (IC50) at Prothrombin was determined as 0.29 µM.

In the case of `CC(C)(C)OC(=O)NC(Cc1ccccc1)C(=O)N1CSCC1C(=O)N[C@H](C=O)CCCN=C(N)N` (stereo in doubt) [listing 2 of 3 here], the half-maximal inhibitory concentration (IC50) against Prothrombin came out at 0.088 µM. This IC50 lies about 3.3-fold lower than the previous one.

Take `CN[C@@H](Cc1ccccc1)C(=O)N1CCC[C@H]1C(=O)N[C@](C)(C=O)CCCN=C(N)N`: the IC50 on Coagulation factor X was 1800 µM; against Plasminogen, 850 µM; in assay [1], more than 30000 µM; on Prothrombin it was 1 µM; against Serine protease 1, 240 µM. Moreover, the Selectivity in assay [2] was 850; in assay [3], more than 30000.

`CC(C)(C)OC(=O)NC(Cc1ccccc1)C(=O)N1CSCC1C(=O)N[C@H](C=O)CCCN=C(N)N` (stereo in doubt) [listing 3 of 3 here]: the Selectivity in assay [2] turned out to be 4; in assay [3], 260.

With `CC(=O)N[C@@](C)(C(=O)N1CC[C@H]1C(=O)N[C@H](C=O)CCCN=C(N)N)c1ccccc1`, the Selectivity amounted to 400 in assay [2] and 13000 in assay [3].

In the case of `CC(C)(C)OC(=O)NC(Cc1ccccc1)C(=O)N1CC[C@H]1C(=O)N[C@@H](CCCN=C(N)N)C(=O)O` (stereo in doubt), it took 0.018 µM to reach half-maximal inhibition on Prothrombin (IC50). For the same compound, the Selectivity in assay [2] was determined as 20; in assay [3] it was 50.

Regarding `N=C(N)NCCC[C@@H](C=O)NC(=O)[C@@H]1CCCN1C(=O)[C@@H]1NCC[C@@H]2CCCC[C@@H]21`, the IC50 was found to be 0.55 µM against Coagulation factor X; 0.71 µM on Plasminogen; 34 µM in assay [1]; 0.019 µM against Prothrombin; 0.053 µM at Serine protease 1. The Selectivity in assay [2] is 40; in assay [3], 1800.

`CC(C)(C)OC(=O)N[C@@H](C(=O)N1CC[C@H]1C(=O)N[C@H](C=O)CCCN=C(N)N)c1ccccc1`: the half-maximal inhibitory concentration (IC50) against Coagulation factor X was 0.27 µM; against Plasminogen, 0.15 µM; in assay [1], 6.6 µM; at Serine protease 1 it was 0.011 µM.

For the compound `CC(=O)N[C@@](C)(C(=O)N1CC[C@H]1C(=O)N[C@H](C=O)CCCNC(=N)N)c1ccccc1`, the IC50 turned out to be 86 µM against Coagulation factor X; 7.5 µM against Plasminogen; 250 µM in assay [1]; 0.019 µM against Prothrombin; 0.011 µM against Serine protease 1.

Take `CN[C@H](Cc1ccccc1)C(=O)N1CCC[C@H]1C(=O)N[C@H](C=O)CCCN=C(N)N`: the IC50 at Coagulation factor X came out at 7.6 µM; on Plasminogen it was 0.67 µM; in assay [1], 21 µM; against Prothrombin, 0.0089 µM; against Serine protease 1, 0.013 µM.

`CC(C)(C)OC(=O)NC(Cc1ccccc1)C(=O)N1C(C(=O)N[C@H](C=O)CCCN=C(N)N)CCC1(C)C` (stereo in doubt) [listing 3 of 3 here]: the half-maximal inhibitory concentration (IC50) at Coagulation factor X is 18 µM; at Plasminogen, 11 µM; in assay [1] it was more than 30000 µM; against Serine protease 1, 0.17 µM.

On to `CC(C)(C)OC(=O)N[C@H](Cc1ccccc1)C(=O)N1CCC[C@H]1C(=O)N[C@H](C=O)CCCN=C(N)N`, for which the IC50 worked out at 1.6 µM at Coagulation factor X, 0.95 µM in assay [1], 0.045 µM against Prothrombin and 0.014 µM at Serine protease 1. Moreover, the Selectivity in assay [2] turned out to be 4; in assay [3], 20.

Take `CC(C)(C)OC(=O)N[C@@H](C(=O)N1CCC[C@H]1C(=O)N[C@H](C=O)CCCN=C(N)N)c1ccccc1` (Boc-[dPhg]-Pro-Arg-aldehyde): the half-maximal inhibitory concentration (IC50) is 0.26 µM against Coagulation factor X, 8.7 µM in assay [1], 0.016 µM at Prothrombin and 0.0098 µM on Serine protease 1. In addition, the Selectivity came out at 6 in assay [2] and 540 in assay [3].

For the compound `N=C(N)NCCC[C@@H](C=O)NC(=O)[C@@H]1CCCN1C(=O)[C@@H]1Cc2ccccc2CN1` (H-[Tic]-Pro-Arg-aldehyde), the IC50 stood at 0.64 µM at Coagulation factor X, 430 µM in assay [1], 0.019 µM against Prothrombin and 0.023 µM at Serine protease 1.

For `CC[C@](NC(=O)C(F)(F)F)(C(=O)N1CC[C@H]1C(=O)N[C@H](C=O)CCCN=C(N)N)c1ccccc1`, the IC50 was 32 µM against Coagulation factor X, 4.3 µM at Plasminogen and 0.0052 µM on Serine protease 1.

As to `CC(C)(C)OC(=O)N[C@H](Cc1ccccc1)C(=O)N1CC[C@H]1C(=O)N[C@H](C=O)CCCNC(=N)N`, the IC50 turned out to be 1.3 µM at Coagulation factor X, 0.36 µM on Plasminogen, 0.9 µM in assay [1] and 0.0097 µM against Serine protease 1.

In general, IC50 refers to the concentration needed to halve the response being measured.
